{"source": "the kinase profiling compilation of Christmann-Franck et al. (2016)", "experiment_in_all_cases": "radiometric filter-binding kinase assay", "key": {"[1]": {"molecular_target": "IRAK4 (human) (UniProt Q9NWZ3)", "conditions": "compound 10.0 µM"}, "[2]": {"molecular_target": "CLK2 (human) (UniProt P49760)", "sequence (P49760 whole entry, looked up)": "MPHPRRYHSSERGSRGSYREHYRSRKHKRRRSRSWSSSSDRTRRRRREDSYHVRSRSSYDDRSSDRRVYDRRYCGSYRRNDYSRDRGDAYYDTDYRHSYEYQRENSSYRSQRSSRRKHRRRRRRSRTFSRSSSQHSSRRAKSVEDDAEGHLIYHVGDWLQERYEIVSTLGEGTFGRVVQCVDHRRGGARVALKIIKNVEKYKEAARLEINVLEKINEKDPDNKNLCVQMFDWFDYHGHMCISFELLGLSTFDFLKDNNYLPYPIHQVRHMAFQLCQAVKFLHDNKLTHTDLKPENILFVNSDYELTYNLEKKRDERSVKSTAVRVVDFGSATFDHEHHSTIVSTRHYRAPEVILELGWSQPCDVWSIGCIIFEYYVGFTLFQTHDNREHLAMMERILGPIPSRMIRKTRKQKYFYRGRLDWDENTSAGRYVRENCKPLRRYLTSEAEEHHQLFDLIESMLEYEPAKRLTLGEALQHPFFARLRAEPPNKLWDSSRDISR"}, "[3]": {"molecular_target": "CHEK2 (human) (UniProt O96017)"}, "[4]": {"molecular_target": "GSK3B (human) (UniProt P49841)"}, "[5]": {"molecular_target": "HIPK2 (human) (UniProt Q9H2X6)"}, "[6]": {"molecular_target": "NEK6 (human) (UniProt Q9HC98)", "conditions": "compound 10.0 µM"}, "[7]": {"molecular_target": "SRC (human) (UniProt P12931)", "conditions": "compound 10.0 µM"}, "[8]": {"molecular_target": "MARK2 (human) (UniProt Q7KZI7)"}, "[9]": {"molecular_target": "RPS6KA5 KD1 KD2 (human) (UniProt O75582)", "conditions": "compound 10.0 µM"}, "[10]": {"molecular_target": "BRSK2 (human) (UniProt Q8IWQ3)", "conditions": "compound 10.0 µM"}, "[11]": {"molecular_target": "AURKB (human) (UniProt Q96GD4)"}, "[12]": {"molecular_target": "MAP3K1 (human) (UniProt Q13233)", "conditions": "compound 10.0 µM"}, "[13]": {"molecular_target": "PRKAA1 PRKAB2 PRKAG1 (human) (UniProt O43741+Q13131+P54619)", "conditions": "compound 10.0 µM"}, "[14]": {"molecular_target": "IGF1R (human) (UniProt P08069)", "conditions": "compound 10.0 µM"}, "[15]": {"molecular_target": "PIM2 (human) (UniProt Q9P1W9)", "conditions": "compound 10.0 µM"}, "[16]": {"system": "SGK1 (human), O00141 [S422D]", "conditions": "compound 10.0 µM"}, "[17]": {"molecular_target": "MAPK1 (human) (UniProt P28482)"}, "[18]": {"system": "RPS6KB1 (human), P23443 [T412E]", "conditions": "compound 10.0 µM"}, "[19]": {"molecular_target": "BTK (human) (UniProt Q06187)", "sequence (Q06187 whole entry, looked up)": "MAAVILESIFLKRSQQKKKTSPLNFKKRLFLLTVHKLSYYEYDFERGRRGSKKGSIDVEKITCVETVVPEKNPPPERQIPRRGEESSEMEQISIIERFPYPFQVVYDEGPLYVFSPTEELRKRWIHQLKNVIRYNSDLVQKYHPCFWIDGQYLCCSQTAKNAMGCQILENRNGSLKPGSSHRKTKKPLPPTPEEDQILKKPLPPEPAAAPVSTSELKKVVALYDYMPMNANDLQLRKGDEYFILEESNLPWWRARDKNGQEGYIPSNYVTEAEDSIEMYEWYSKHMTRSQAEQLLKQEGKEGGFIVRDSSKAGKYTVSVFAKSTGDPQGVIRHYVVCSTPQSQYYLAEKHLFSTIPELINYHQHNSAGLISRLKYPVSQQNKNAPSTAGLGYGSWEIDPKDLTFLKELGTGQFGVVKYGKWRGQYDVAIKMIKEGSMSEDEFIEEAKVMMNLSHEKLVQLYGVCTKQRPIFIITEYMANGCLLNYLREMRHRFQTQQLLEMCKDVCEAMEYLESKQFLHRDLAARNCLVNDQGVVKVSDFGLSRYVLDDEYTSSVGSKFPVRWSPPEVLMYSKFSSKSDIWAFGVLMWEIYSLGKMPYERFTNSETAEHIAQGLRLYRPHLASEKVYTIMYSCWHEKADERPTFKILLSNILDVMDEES"}, "[20]": {"molecular_target": "MAPK14 (human) (UniProt Q16539)", "sequence (Q16539 whole entry, looked up)": "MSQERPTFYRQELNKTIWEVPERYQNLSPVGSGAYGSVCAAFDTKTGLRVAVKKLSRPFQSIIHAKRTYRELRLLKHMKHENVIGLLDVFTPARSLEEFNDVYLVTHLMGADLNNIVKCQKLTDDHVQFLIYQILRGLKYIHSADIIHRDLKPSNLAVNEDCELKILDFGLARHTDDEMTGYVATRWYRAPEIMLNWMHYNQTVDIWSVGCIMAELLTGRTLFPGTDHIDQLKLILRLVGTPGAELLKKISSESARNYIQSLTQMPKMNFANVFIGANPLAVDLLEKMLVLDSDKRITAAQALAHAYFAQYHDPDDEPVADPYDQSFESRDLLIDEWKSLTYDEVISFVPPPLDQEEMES"}, "[21]": {"molecular_target": "SRPK1 (human) (UniProt Q96SB4)", "conditions": "compound 10.0 µM"}, "[22]": {"molecular_target": "MAPKAPK2 (human) (UniProt P49137)", "sequence (P49137 whole entry, looked up)": "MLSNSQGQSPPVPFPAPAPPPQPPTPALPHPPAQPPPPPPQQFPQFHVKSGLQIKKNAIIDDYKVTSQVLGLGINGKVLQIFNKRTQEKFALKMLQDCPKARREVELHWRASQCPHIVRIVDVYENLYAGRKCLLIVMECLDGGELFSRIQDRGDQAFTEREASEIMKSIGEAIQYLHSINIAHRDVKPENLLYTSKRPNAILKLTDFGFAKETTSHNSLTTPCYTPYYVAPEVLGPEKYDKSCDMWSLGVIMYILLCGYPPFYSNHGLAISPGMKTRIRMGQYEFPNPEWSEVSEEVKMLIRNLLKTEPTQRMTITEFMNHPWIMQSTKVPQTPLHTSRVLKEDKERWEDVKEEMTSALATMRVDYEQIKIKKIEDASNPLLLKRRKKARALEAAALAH"}, "[23]": {"molecular_target": "NUAK1 (human) (UniProt O60285)"}, "[24]": {"molecular_target": "MINK1 (human) (UniProt Q8N4C8)", "sequence (Q8N4C8 whole entry, looked up)": "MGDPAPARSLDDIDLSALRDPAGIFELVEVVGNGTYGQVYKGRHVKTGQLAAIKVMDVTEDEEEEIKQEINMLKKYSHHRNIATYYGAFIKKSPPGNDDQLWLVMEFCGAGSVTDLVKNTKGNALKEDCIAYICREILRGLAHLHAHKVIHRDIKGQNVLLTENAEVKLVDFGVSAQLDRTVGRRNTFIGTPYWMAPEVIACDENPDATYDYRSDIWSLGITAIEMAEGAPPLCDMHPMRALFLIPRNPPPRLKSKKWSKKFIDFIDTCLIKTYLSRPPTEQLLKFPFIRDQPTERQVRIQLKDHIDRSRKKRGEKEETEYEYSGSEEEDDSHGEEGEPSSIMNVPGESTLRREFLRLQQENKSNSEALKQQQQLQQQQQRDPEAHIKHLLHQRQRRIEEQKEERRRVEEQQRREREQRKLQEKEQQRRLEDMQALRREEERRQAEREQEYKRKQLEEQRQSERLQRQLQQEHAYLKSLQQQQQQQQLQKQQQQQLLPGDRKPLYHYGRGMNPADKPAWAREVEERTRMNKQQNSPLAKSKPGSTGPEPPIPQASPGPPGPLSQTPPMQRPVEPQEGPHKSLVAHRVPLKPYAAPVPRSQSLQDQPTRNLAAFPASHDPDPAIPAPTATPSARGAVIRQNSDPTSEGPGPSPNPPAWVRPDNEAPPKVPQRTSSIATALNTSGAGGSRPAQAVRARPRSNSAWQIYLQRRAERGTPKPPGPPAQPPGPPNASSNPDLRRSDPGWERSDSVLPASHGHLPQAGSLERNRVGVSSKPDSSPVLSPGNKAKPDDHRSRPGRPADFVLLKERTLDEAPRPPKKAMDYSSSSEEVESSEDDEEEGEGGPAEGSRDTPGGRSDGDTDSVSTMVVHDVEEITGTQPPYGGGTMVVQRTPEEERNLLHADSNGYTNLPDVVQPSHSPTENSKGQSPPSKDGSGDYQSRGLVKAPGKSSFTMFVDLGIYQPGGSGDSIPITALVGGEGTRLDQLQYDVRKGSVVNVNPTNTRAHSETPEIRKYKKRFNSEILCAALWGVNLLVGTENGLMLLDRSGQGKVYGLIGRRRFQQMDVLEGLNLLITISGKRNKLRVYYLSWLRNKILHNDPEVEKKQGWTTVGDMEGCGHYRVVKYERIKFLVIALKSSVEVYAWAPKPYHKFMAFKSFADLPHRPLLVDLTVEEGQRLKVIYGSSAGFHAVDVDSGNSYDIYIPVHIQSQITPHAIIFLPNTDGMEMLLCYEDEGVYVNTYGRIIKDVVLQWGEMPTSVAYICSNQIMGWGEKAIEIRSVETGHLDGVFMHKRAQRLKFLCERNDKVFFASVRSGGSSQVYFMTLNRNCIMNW"}, "[25]": {"molecular_target": "RPS6KA1 KD1 KD2 (human) (UniProt Q15418)", "conditions": "compound 10.0 µM"}, "[26]": {"molecular_target": "PIM1 (human) (UniProt P11309)", "sequence (P11309 whole entry, looked up)": "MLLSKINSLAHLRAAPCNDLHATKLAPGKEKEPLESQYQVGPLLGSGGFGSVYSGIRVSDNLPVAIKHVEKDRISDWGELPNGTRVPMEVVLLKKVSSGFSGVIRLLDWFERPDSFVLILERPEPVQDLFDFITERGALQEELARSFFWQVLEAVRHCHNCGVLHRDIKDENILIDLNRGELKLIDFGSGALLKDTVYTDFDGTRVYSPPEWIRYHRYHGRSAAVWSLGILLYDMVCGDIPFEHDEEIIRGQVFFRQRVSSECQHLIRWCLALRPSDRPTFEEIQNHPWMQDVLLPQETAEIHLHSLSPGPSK"}, "[27]": {"molecular_target": "PIM3 (human) (UniProt Q86V86)"}, "[28]": {"molecular_target": "EPHB3 (human) (UniProt P54753)", "conditions": "compound 10.0 µM"}, "[29]": {"molecular_target": "FLT1 (human) (UniProt P17948)"}, "[30]": {"molecular_target": "MST4 (human) (UniProt Q9P289)", "conditions": "compound 10.0 µM"}, "[31]": {"molecular_target": "DYRK3 (human) (UniProt O43781)", "sequence (O43781 whole entry, looked up)": "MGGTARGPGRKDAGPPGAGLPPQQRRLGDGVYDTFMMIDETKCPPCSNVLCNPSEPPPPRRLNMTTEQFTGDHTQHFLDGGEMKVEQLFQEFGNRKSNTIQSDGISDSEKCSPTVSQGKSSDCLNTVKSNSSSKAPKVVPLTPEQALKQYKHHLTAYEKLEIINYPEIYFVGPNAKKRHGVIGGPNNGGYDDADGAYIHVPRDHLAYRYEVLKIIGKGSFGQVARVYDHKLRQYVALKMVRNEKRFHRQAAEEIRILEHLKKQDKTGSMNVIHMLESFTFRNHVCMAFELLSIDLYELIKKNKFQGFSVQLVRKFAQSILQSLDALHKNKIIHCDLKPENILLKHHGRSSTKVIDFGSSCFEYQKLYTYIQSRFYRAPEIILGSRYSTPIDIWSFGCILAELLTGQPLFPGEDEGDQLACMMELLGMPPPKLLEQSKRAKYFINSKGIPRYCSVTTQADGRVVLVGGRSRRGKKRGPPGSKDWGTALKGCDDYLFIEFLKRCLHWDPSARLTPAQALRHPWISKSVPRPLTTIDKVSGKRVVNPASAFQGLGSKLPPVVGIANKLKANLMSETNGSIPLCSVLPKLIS"}, "[32]": {"molecular_target": "MAP2K1 (human) (UniProt Q02750)", "conditions": "compound 10.0 µM"}, "[33]": {"molecular_target": "HIPK3 (human) (UniProt Q9H422)", "conditions": "compound 10.0 µM"}, "[34]": {"molecular_target": "MAPK3 (human) (UniProt P27361)", "sequence (P27361 whole entry, looked up)": "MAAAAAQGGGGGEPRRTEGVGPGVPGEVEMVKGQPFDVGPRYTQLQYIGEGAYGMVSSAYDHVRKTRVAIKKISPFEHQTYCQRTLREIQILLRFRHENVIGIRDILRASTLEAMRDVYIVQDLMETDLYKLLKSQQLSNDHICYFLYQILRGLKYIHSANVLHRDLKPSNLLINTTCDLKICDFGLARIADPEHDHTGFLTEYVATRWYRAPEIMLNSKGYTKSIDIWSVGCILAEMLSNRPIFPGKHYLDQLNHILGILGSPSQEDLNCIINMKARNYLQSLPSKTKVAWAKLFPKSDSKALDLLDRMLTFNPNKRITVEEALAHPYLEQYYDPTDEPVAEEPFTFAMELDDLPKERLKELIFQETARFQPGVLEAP"}, "[35]": {"molecular_target": "HIPK1 (human) (UniProt Q86Z02)", "conditions": "compound 10.0 µM"}}, "data": [{"smiles": "Cc1nc(N)sc1-c1csc(Nc2cccnc2)n1", "values": [{"measurement": "residual activity", "setting": "[1]", "result": 74, "unit": "%"}, {"measurement": "residual activity", "setting": "[2]; compound 10.0 µM", "result": 18, "unit": "%"}, {"measurement": "residual activity", "setting": "[2]; compound 100.0 µM", "result": 3, "unit": "%"}, {"measurement": "residual activity", "setting": "[3]; compound 10.0 µM", "result": 57, "unit": "%"}, {"measurement": "residual activity", "setting": "[3]; compound 100.0 µM", "result": 10, "unit": "%"}, {"measurement": "residual activity", "setting": "[4]; compound 10.0 µM", "result": 48, "unit": "%"}, {"measurement": "residual activity", "setting": "[4]; compound 100.0 µM", "result": 19, "unit": "%"}, {"measurement": "residual activity", "setting": "[5]; compound 10.0 µM", "result": 61, "unit": "%"}, {"measurement": "residual activity", "setting": "[5]; compound 100.0 µM", "result": 7, "unit": "%"}, {"measurement": "residual activity", "setting": "[6]", "result": 73, "unit": "%"}, {"measurement": "residual activity", "setting": "[7]", "result": 91, "unit": "%"}, {"measurement": "residual activity", "setting": "[8]; compound 10.0 µM", "result": 48, "unit": "%"}, {"measurement": "residual activity", "setting": "[8]; compound 100.0 µM", "result": 71, "unit": "%"}, {"measurement": "residual activity", "setting": "[9]", "result": 88, "unit": "%"}, {"measurement": "residual activity", "setting": "[10]", "result": 70, "unit": "%"}, {"measurement": "residual activity", "setting": "[11]; compound 10.0 µM", "result": 70, "unit": "%"}, {"measurement": "residual activity", "setting": "[11]; compound 100.0 µM", "result": 3, "unit": "%"}, {"measurement": "residual activity", "setting": "[12]", "result": 90, "unit": "%"}, {"measurement": "residual activity", "setting": "[13]", "result": 83, "unit": "%"}, {"measurement": "residual activity", "setting": "[14]", "result": 70, "unit": "%"}, {"measurement": "residual activity", "setting": "[15]", "result": 63, "unit": "%"}, {"measurement": "residual activity", "setting": "[16]", "result": 96, "unit": "%"}, {"measurement": "residual activity", "setting": "[17]; compound 10.0 µM", "result": 93, "unit": "%"}, {"measurement": "residual activity", "setting": "[17]; compound 100.0 µM", "result": 95, "unit": "%"}, {"measurement": "residual activity", "setting": "[18]", "result": 64, "unit": "%"}, {"measurement": "residual activity", "setting": "[19]; compound 10.0 µM", "result": 26, "unit": "%"}, {"measurement": "residual activity", "setting": "[19]; compound 100.0 µM", "result": 38, "unit": "%"}, {"measurement": "residual activity", "setting": "[20]; compound 10.0 µM", "result": 91, "unit": "%"}, {"measurement": "residual activity", "setting": "[20]; compound 100.0 µM", "result": 78, "unit": "%"}, {"measurement": "residual activity", "setting": "[21]", "result": 82, "unit": "%"}, {"measurement": "residual activity", "setting": "[22]; compound 10.0 µM", "result": 92, "unit": "%"}, {"measurement": "residual activity", "setting": "[22]; compound 100.0 µM", "result": 5, "unit": "%"}, {"measurement": "residual activity", "setting": "[23]; compound 10.0 µM", "result": 42, "unit": "%"}, {"measurement": "residual activity", "setting": "[23]; compound 100.0 µM", "result": 11, "unit": "%"}, {"measurement": "residual activity", "setting": "[24]; compound 10.0 µM", "result": 35, "unit": "%"}, {"measurement": "residual activity", "setting": "[24]; compound 100.0 µM", "result": 3, "unit": "%"}, {"measurement": "residual activity", "setting": "[25]", "result": 105, "unit": "%"}, {"measurement": "residual activity", "setting": "[26]; compound 10.0 µM", "result": 22, "unit": "%"}, {"measurement": "residual activity", "setting": "[26]; compound 100.0 µM", "result": 6, "unit": "%"}, {"measurement": "residual activity", "setting": "[27]; compound 10.0 µM", "result": 17, "unit": "%"}, {"measurement": "residual activity", "setting": "[27]; compound 100.0 µM", "result": 10, "unit": "%"}, {"measurement": "residual activity", "setting": "[28]", "result": 101, "unit": "%"}, {"measurement": "residual activity", "setting": "[29]; compound 10.0 µM", "result": 45, "unit": "%"}, {"measurement": "residual activity", "setting": "[29]; compound 100.0 µM", "result": 6, "unit": "%"}, {"measurement": "residual activity", "setting": "[30]", "result": 96, "unit": "%"}, {"measurement": "residual activity", "setting": "[31]; compound 10.0 µM", "result": 45, "unit": "%"}, {"measurement": "residual activity", "setting": "[31]; compound 100.0 µM", "result": 6, "unit": "%"}, {"measurement": "residual activity", "setting": "[32]", "result": 80, "unit": "%"}, {"measurement": "residual activity", "setting": "[33]", "result": 60, "unit": "%"}, {"measurement": "residual activity", "setting": "[34]; compound 10.0 µM", "result": 66, "unit": "%"}, {"measurement": "residual activity", "setting": "[34]; compound 100.0 µM", "result": 21, "unit": "%"}, {"measurement": "residual activity", "setting": "[35]", "result": 84, "unit": "%"}]}]}
